In US9624167B2, “N-(4-hydroxy-4-methyl-cyclohexyl)-4-phenyl-benzenesulfonamides and N-(4-hydroxy-4-methyl-cyclohexyl)-4-(2-pyridyl)benzenesulfonamides and their therapeutic use” (PIMCO 2664 LIMITED, priority 2013, dated 2017):

Assays:
hERG = biological target: T1, hERG (Homo sapiens, UniProt Q12809); assay: hERG Ion Channel Assay (Q-patch, hERG-CHO cells); type: cell-based; conditions: human, CHO cells stably transfected with hERG (hERG-CHO), pH 7.4, 30 μM
T1 construct: expressed in transfected cells; host or cells: Chinese Hamster Ovary cells (hERG-CHO), stably transfected
Procedure: The activity of the compounds against the hERG ion channel was tested. The assay was conducted using the automated path-clamp, Q-patch method using stably transfected Chinese Hamster Ovary cells (hERG-CHO). hERG-CHO cells were cultured in F-12 Kaighn's Nutrient Mixture medium (Invitrogen)+10% FBS at 37° C. for 1-3 days. Cells were kept at 30° C. for 24 to 48 hours prior to patch clamping in order to increase the hERG current amplitude. Subsequently, the cells were harvested by trypsinisation, and kept in Serum Free Medium (SFM) in the Q-patch cell preparation state for up to 6 hours at room temperature before being washed and re-suspended in extracellular solution and applied to the patch clamp sites for data recording.
Patch-clamp voltage protocol: After whole cell configuration was achieved, the cell was held at −80 mV. A 50 millisecond pulse to −40 mV was delivered to measure the leaking current, which was subtracted from the tail current on-line. Then the cell was depolarized to +20 mV for 2 seconds, followed by a one second pulse to −40 mV to reveal hERG tail current. This paradigm was delivered once every 5 seconds to monitor the current amplitude.
Extracellular solution: 137 mM NaCl, 4 mM KCl, 1.8 mM CaCl2, 1 mM MgCl2, 10 mM D(+)-glucose, 10 mM HePES buffer (pH adjusted to 7.4 with NaOH).
After the whole cell configuration was achieved, the extracellular solution (control) was applied first and the cell was stabilized for 2 minutes in extracellular solution. The test compound was then applied from low concentrations to high concentrations cumulatively. The cell was incubated with each test concentration for 5 minutes. During each incubation, the cell was repetitively stimulated using the voltage protocol described above, and the tail current amplitude was continuously monitored.
• (1) Peak tail current >100 pA in control. • (2) Initial run-down <30% and the run-down stops before first application of the test compound. • (3) Leak currents <50% of the control peak tail currents at any time. • (4) rs<20 MΩ throughout the experiment.
The degree of inhibition (%) was obtained by measuring the tail current amplitude, induced by a one second test pulse to −40 mV after a two second pulse to +20 mV, before and after incubation with the test compound. The difference in current was normalized to control and multiplied by 100 in order to obtain the percent inhibition.
Concentration (log) response curves were fitted to a logistic equation (three parameters assuming complete block of the current at very high test compound concentrations) to generate estimates of the 50% inhibitory concentration (IC50). The concentration-response relationship of each compound was constructed from the percentage reductions of current amplitude by sequential concentrations.

[1] = test system: GADD45a-GFP reporter in TK6 human lymphoblastoid cell line; assay: GreenScreen HC genotoxicity (GADD45a-GFP reporter); type: cell-based
Text: GreenScreen HC is a mammalian cell-based assay for measuring the genotoxicity and cytotoxicity of chemical compounds and mixtures.
The term genotoxic is used to describe substances that are capable of causing damage to genetic material (DNA) within a cell, which may ultimately have mutagenic, carcinogenic or teratogenic effects in humans.
The GreenScreen assay reports genotoxic stress as an increase in fluorescence from a genetically modified derivative of the p53-competent TK6 human lymphoblastoid cell line. In the modified cells, regulatory DNA sequences which promote the transcription of the GADD45a gene control the expression of Green Fluorescent Protein (GFP). GADD45a has a central role in genomic integrity, and genotoxic stress induces its transcription. Exposure to a genotoxic compound therefore increases the expression of GFP, which is observed as an increase in fluorescence and which is monitored by fluorescent detection using a plate reader or flow cytometer. In the GreenScreen HC assay fluorescence is normalised to the optical absorbance measurement to correct for variation in cell yield caused by loss of cell viability or cytotoxicity. The statistically defined threshold for a positive result in the GreenScreen HC assay is 1.5, i.e., 50% induction over and above the baseline for the vehicle-treated control.
A dilution series of each test compound is generated in parallel in a 96-well, black microplate with an optically clear base. A standard genotoxic compound (methyl methanesulfonate, MMS) is added as an intra-plate quality control check. The plates are analysed at 24 hour and 48 hour time points using a microplate reader, which provides measurements of light absorbance and fluorescence for cells and solutions in the microplates wells.
In addition to measurements of cell viability and genotoxicity described above, the GreenScreen assay incorporates an assessment of the effects of metabolic activation in the assay, the “GreenScreen HC S9 assay”. To accomplish this, the cells are incubated both in the presence of and absence of the post-mitochondrial supernatant liver extract (known as “S9”). S9 is routinely used in genetic toxicology to supplement the test cells with mammalian phase I metabolism. To assess metabolic activation, compounds are incubated with the TK6 strain in the presence of 1% v/v S9 fraction mix for 3 hours with a subsequent 45 hour recovery time. After the recovery period, the GFP fluorescence signal and cell viability (assessed by propidium iodide uptake) are measured using a flow cytometer. Cyclophosphamide, a commonly used control in genotoxicity studies utilising metabolic activation, is used as the positive control in the assay. In the GreenScreen HC S9 assay, genotoxicity is evaluated by induction in GFP expression quantified using the mean sample fluorescence and cytotoxicity using the propidium iodide uptake assay described above. The statistically defined threshold for a positive genotoxicity result is 1.3, i.e. 30% induction over and above the baseline for the vehicle-treated control and the result is reported as positive or negative. Cytotoxic compounds are those that show an observed decrease in relative population survival below a significance threshold set at 90% compared to vehicle-treated control, at one or more test concentrations.
Stably transfected reporter cell lines were derived from the p53-competent human lymphoblastoid TK6 cell line. The reporter cell line carries an episomally replicating plasmid bearing the upstream promoter region and other regulatory sequences of the human GADD45a gene linked to a human optimised Green Fluorescent Protein (GFP) gene. The control cell line carries an identical plasmid except for the removal of 4 base pairs at the start of the EGFP gene, such that GFP is not produced. […]

[2] = GreenScreen HC, positive or negative

T1 sequence (Q12809 whole entry): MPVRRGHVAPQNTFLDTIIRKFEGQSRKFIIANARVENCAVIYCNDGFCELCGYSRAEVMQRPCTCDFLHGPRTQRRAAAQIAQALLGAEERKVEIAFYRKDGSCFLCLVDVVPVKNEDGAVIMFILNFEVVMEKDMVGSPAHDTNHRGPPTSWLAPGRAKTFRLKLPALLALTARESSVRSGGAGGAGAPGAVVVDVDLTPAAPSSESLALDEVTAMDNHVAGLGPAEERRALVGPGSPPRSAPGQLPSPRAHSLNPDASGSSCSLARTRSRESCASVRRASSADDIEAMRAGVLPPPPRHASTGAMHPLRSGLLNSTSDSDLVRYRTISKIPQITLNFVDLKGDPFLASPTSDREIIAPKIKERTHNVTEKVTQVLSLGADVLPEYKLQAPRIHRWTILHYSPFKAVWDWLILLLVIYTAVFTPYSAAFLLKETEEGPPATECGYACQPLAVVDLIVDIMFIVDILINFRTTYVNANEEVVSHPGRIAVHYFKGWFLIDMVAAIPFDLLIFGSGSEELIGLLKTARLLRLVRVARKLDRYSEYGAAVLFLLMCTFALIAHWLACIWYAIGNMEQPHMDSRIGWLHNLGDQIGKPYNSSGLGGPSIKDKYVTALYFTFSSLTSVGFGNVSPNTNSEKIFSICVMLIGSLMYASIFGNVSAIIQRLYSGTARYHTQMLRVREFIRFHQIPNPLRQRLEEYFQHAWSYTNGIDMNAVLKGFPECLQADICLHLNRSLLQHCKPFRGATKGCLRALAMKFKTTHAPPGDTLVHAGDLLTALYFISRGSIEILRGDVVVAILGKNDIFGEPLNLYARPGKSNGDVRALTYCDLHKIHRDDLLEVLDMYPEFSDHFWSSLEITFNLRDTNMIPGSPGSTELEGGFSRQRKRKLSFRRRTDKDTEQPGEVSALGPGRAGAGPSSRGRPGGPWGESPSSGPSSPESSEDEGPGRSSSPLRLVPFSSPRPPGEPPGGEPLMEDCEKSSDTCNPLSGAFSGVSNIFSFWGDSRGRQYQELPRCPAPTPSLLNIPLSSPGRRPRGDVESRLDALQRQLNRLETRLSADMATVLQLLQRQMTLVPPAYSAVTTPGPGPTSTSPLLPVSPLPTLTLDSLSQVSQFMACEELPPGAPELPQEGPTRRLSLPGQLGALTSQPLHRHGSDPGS

SMILES	inhibition at 5 min, 30 µM (hERG; hERG tail current) [%]	Genotoxicity [1, 2]	other results
C[C@]1(O)CC[C@@H](NS(=O)(=O)c2ccc(-c3ccc(F)cc3C(F)(F)F)cc2)CC1 [HMC-C-02-B, 4′-Fluoro-N-((1s,4s)-4-hydroxy-4-methylcyclohexyl)-2′-(trifluoromethyl)-[1,1′-biphenyl]-4-sulfonamide]	94	–	–
C[C@]1(O)CC[C@H](NS(=O)(=O)c2ccc(-c3ccc(F)cc3F)c(F)c2)CC1 [HMC-C-04-A, 2,2′,4′-Trifluoro-N-((1r,4r)-4-hydroxy-4-methylcyclohexyl)-[1,1′-biphenyl]-4-sulfonamide]	69	–	–
C[C@]1(O)CC[C@H](NS(=O)(=O)c2ccc(-c3ncc(Cl)cc3Cl)cc2)CC1 [HMC-N-03-A, 4-(3,5-Dichloropyridin-2-yl)-N-((1r,4r)-4-hydroxy-4-methylcyclohexyl)benzenesulfonamide]	13	Negative	–
C[C@]1(O)CC[C@H](NS(=O)(=O)c2ccc(-c3ccc(F)cc3C(F)(F)F)cc2)CC1 [HMC-C-02-A, 4′-Fluoro-N-((1r,4r)-4-hydroxy-4-methylcyclohexyl)-2′-(trifluoromethyl)biphenyl-4-sulfonamide]	57	Negative	–
Cc1cc(S(=O)(=O)N[C@H]2CC[C@H](O)CC2)ccc1-c1ccc(F)cc1F [ABD735]	62.5	Negative	–
O=S(=O)(N[C@H]1CC[C@H](O)CC1)c1ccc(-c2ncc(Cl)cc2Cl)cc1 [ABD836, reference compound]	50	Positive	–
C[C@]1(O)CC[C@H](NS(=O)(=O)c2ccc(-c3ccc(Cl)cc3C#N)cc2)CC1 [HMC-C-01-A, 4′-Chloro-2′-cyano-N-((1r,4r)-4-hydroxy-4-methylcyclohexyl)biphenyl-4-sulfonamide]	79	Negative	–
C[C@]1(O)CC[C@@H](NS(=O)(=O)c2ccc(-c3ncc(Cl)cc3Cl)cc2)CC1 [HMC-N-03-B, 4-(3,5-Dichloropyridin-2-yl)-N-((1s,4s)-4-hydroxy-4-methylcyclohexyl)benzenesulfonamide]	47	–	–
C[C@]1(O)CC[C@@H](NS(=O)(=O)c2ccc(-c3ncc(F)cc3F)cc2)CC1 [HMC-N-02-B, 4-(3,5-Difluoropyridin-2-yl)-N-((1s,4s)-4-hydroxy-4-methylcyclohexyl)benzenesulfonamide]	23	Negative	–
C[C@]1(O)CC[C@H](NS(=O)(=O)c2ccc(-c3c(F)cc(F)cc3F)cc2)CC1 [HMC-C-03-A, 2′,4′,6′-Trifluoro-N-((1r,4r)-4-hydroxy-4-methylcyclohexyl)biphenyl-4-sulfonamide]	45	Negative	–
C[C@]1(O)CC[C@H](NS(=O)(=O)c2ccc(-c3ncc(F)cc3F)c(F)c2)CC1 [HMC-N-01-A, 4-(3,5-Difluoropyridin-2-yl)-3-fluoro-N-((1r,4r)-4-hydroxy-4-methylcyclohexyl)benzenesulfonamide]	2	Negative	–
C[C@]1(O)CC[C@@H](NS(=O)(=O)c2ccc(-c3ccc(Cl)cc3C#N)cc2)CC1 [HMC-C-01-B, 4′-Chloro-2′-cyano-N-((1s,4s)-4-hydroxy-4-methylcyclohexyl)-[1,1′-biphenyl]-4-sulfonamide]	74	Negative	–
C[C@]1(O)CC[C@H](NS(=O)(=O)c2ccc(-c3ncc(Cl)cc3Cl)c(F)c2)CC1 [HMC-N-04-A, 4-(3,5-Dichloropyridin-2-yl)-3-fluoro-N-((1r,4r)-4-hydroxy-4-methylcyclohexyl)benzenesulfonamide]	26	Negative	–
C[C@]1(O)CC[C@@H](NS(=O)(=O)c2ccc(-c3ccc(F)cc3F)cc2)CC1 [ABD899, reference compound]	–	–	Genotoxicity ([1]; lab scale batch, 1.3 mM to 0.3 pM): Positive; Genotoxicity ([1]; mid scale batch, 164 μM to 0.003 μM): Negative; inhibition at 5 min, 30 µM (hERG; a lab-scale batch was tested): 100%; inhibition at 5 min, 30 µM (hERG; a mid-scale batch was tested): 53%
C[C@]1(O)CC[C@@H](NS(=O)(=O)c2ccc(-c3ncc(F)cc3F)c(F)c2)CC1 [HMC-N-01-B, 4-(3,5-Difluoropyridin-2-yl)-3-fluoro-N-((1s,4s)-4-hydroxy-4-methylcyclohexyl)benzenesulfonamide]	27	Negative	–
C[C@]1(O)CC[C@@H](NS(=O)(=O)c2ccc(-c3c(F)cc(F)cc3F)cc2)CC1 [HMC-C-03-B, 2′,4′,6′-Trifluoro-N-((1s,4s)-4-hydroxy-4-methylcyclohexyl)-[1,1′-biphenyl]-4-sulfonamide]	36	Positive	–
C[C@]1(O)CC[C@H](NS(=O)(=O)c2ccc(-c3ncc(F)cc3F)cc2)CC1 [HMC-N-02-A, 4-(3,5-Difluoropyridin-2-yl)-N-((1r,4r)-4-hydroxy-4-methylcyclohexyl)benzenesulfonamide]	31	Negative	–
Cc1cc(S(=O)(=O)NC2CCC(C)(O)CC2)ccc1-c1ccc(F)cc1F (single isomer, unassigned) [REF001, reference compound]	60	Positive	–
C[C@]1(O)CC[C@H](NS(=O)(=O)c2ccc(-c3ccc(F)cc3F)cc2)CC1 [ABD900, reference compound]	51	Negative	–
